Data from PMC8704491, “Prothoracicostatic Activity of the Ecdysis-Regulating Neuropeptide Crustacean Cardioactive Peptide (CCAP) in the Desert Locust” (International Journal of Molecular Sciences, 2021).

How the values were obtained:
[1] = system: Schgr-CCAPR-3; test: aequorin bioluminescence assay, CHO-WTA11 cells; type: cell-based, Schistocerca gregaria
Description: (§1) To deorphanize the three GPCRs, they were heterologously expressed in Chinese hamster ovary (CHO)-WTA11 cells, which stably express aequorin and a promiscuous Gα16 subunit. […] Intracellular signaling of Schgr-CCAPR-1, -2 and -3 was investigated in Schgr-CCAPR-expressing cells lacking the promiscuous Gα16 subunit (CHO-PAM28 cells) or co-expressing a cyclic AMP (cAMP) response element (CRE)-luciferase reporter (human embryonic kidney (HEK) 293T). In Schgr-CCAPR expressing CHO-PAM28 cells, Schgr-CCAP induced dose-dependent aequorin-based bioluminescent responses, with EC50 values in the subnanomolar range: 0.7 nM, 0.2 nM and 0.5 nM for Schgr-CCAPR-1, -2 and -3, respectively (Figure S4A).
(§2) Figure 2 Aequorin-based bioluminescent responses in cell-based receptor activity assays. (A) Dose-response curves induced by CCAP in CHO-WTA11-Schgr-CCAPR-1, -2 or -3 cells. The EC50 values are indicated. (B) Results for aequorin-based bioluminescent response induced in CHO-WTA11-Schgr-CCAPR-1, -2 and -3 cells upon addition of 1 µM of peptide. These cell-based receptor activity data were obtained from three independent experiments. The cell-based assays were executed in three independent transfections. Error bars in dose-response curves represent the S.E.M and the 100% level refers to the maximal response level. Agonist selectivity was normalized to bioluminescent response acquired by exposure to CCAP. The zero-response level corresponds to treatment with BSA medium only. Abbreviations: Schgr = Schistocerca gregaria, CCAP = crustacean cardioactive peptide, CCAPR = CCAP receptor, CCHa = CCHamide, ASTC = allostatin C, ASTCCC = allostatin CCC, Crz = corazonin, AKH I(I) = adipokinetic hormone I(I), INT = inotocin.
(§3) Aequorin and CRE(6x)-luc reporter assays, as well as maintenance of the cell cultures and cell transfections, were carried out as previously described. […] Minimum bioluminescence values correlate with the signal obtained in the blank condition (without exposure to S. gregaria peptides). Calculations were performed using the output file from the Microwin software (Berthold Technologies, Bad Wildbad, Germany) in Excel (Microsoft). Half-maximal effective concentrations (EC50) were determined with the PRISM software (Graphpad version 6.03) using non-linear regression, log(agonist) vs. normalized response, applied to a sigmoidal dose-response model.

[2] = system: Schgr-CCAPR-1; test: aequorin bioluminescence assay, CHO-WTA11 cells; type: cell-based, Schistocerca gregaria
Description: as §1, §2, §3

[3] = system: Schgr-CCAPR-2; test: aequorin bioluminescence assay, CHO-WTA11 cells; type: cell-based, Schistocerca gregaria
Description: as §1, §2, §3

[4] = system: locust oviducts; conditions: Ca^2+-dependent, ref [32]; cited from earlier work
Description: The three Schgr-CCAPRs show high sequence similarity to deorphanized CCAP receptors of D. melanogaster, T. castaneum and R. prolixus. Although only one CCAP receptor has been identified in many insect species, there are other species, such as S. gregaria, which have multiple isoforms. […] This is a commonly occurring feature during evolution of GPCR genes in both vertebrates and invertebrates. To supp ...

[5] = system: Schgr-CCAPpre depleted nymphs; test: rescue of Schgr-CCAPpre depleted nymphs by CCAP injection; type: in vivo, Schistocerca gregaria; conditions: daily 0.92 pg CCAP in 4 µL saline throughout N5; 18/30; vs saline; p < 0.05, Fisher's exact test
Protocol: Figure 4 Phenotypic effect of Schgr-CCAPpre or Schgr-CCAPR-1, -2 and/or -3 depletion on ecdysis. (A) Percentage of nymphs displaying ecdysis arrest at nymphal-adult (N5-Ad) molt (n = 25, per construct). Nymphs were injected at N4D0, N4D4, N5D1, N5D4 and N5D7 with 400 ng of dsGFP (control), dsCCAPpre, dsCCAPR1/2/3a, dsCCAPR1/2/3b, dsCCAPR-1, dsCCAPR-2 or dsCCAPR-3. (B) Percentage of nymphs displaying ecdysis arrest at nymphal-nymphal (N4–N5) and N5-Ad molts (n = 25, per construct). Nymphs were injected in late N3, N4D1 and N4D4 with 400 ng of dsGFP (control), dsCCAPpre or dsCCAPR1/2/3a. (C) The timing of ecdysis initiation in dsGFP (control), dsCCAPpre (Schgr-CCAPpre knockdown) and dsCCAPR1/2/3a (Schgr-CCAPRs knockdown) injected nymphs, as observed starting from freshly molted fifth instar nymphs. A log-rank (Mantel-Cox) test was used to check for significant differences in ecdysis initiation between populations. (D) Rescue of Schgr-CCAPpre depleted nymphs (n = 30) by additional daily injections of 0.92 pg CCAP in 4 µL S. gregaria saline in N5. In the control groups, nymphs received dsGFP injections or dsCCAPpre injections (n = 31), with additional daily injections of S. gregaria saline in N5. Significant differences (p < 0.05) are indicated by an asterisk (*) and calculated by the Fisher’s exact test. (E) Ecdysis deficient phenotype (top photos). […]

[6] = system: 20E levels; conditions: daily injection, adult American cockroach; ref [35]; cited from earlier work
Protocol: High relative transcript levels of the Schgr-CCAPRs were determined in the PG at N5WD. […] From these observations we conclude that CCAP acts directly on the prothoracic gland as a prothoracicostatic factor. In contrast to the ecdysiostatic activity of CCAP in S. gregaria nymphs, dai ...

[7] = system: prothoracic gland (PG) explants; test: ecdysteroid secretion by prothoracic gland explants; set-up: species or system Schistocerca gregaria; conditions: 1 µM CCAP, 24 h, 50 µL Grace's insect medium, 30 °C, PG from N5IW nymphs, n = 16 vs n = 15, p < 0.001
Protocol: Figure 6 Ecdysteroid secretion by prothoracic gland (PG) explants incubated for 24 h in a volume of 50 µL Grace’s insect medium (GI) with or without 1 µM CCAP. PGs were micro-dissected from fifth instar (N5) nymphs at N5IW (inter-wing distance of at least 1.8 mm; GI, n = 15; GI + 1 µM CCAP, n = 16) Each data point represents 20E-equivalents secreted by PG from a single nymph. Mean ± S.E.M. is also indicated per group. Significant difference (p < 0.001) is indicated by asterisks (***) and was calculated by an unpaired t-test with Welch’s correction. Used abbreviations: CCAP = crustacean cardioactive peptide and GI = Grace’s Insect Medium.
To correlate the locust’s morphology to the nymphal ecdysteroid titer that regulates molting, hemolymph was collected as well at the described sampling moments. 20 µL hemolymph from each N5 animal was collected into 280 µL cold ethanol. Each sample was further processed as previously described. The ecdysteroid titers were subsequently quantified using the 20-Hydroxyecdysone ELISA kit (Bertin Technologies, Montigny-le-Bretonneux, France), according to the manufacturer’s protocol.
PGs of N5IW nymphs were micro-dissected in S. gregaria saline solution and incubated in 50 µL Grace’s Insect medium (GI) (Invitrogen, Waltham, MA, USA) containing 1 µM CCAP or in GI without peptide. […]

[8] = system: heartbeat and skeletal muscles; set-up: method as in PMID 9151755, PMID 18835439, PMID 16968777; conditions: released into hemolymph during ecdysis; ref [14],[15],[33]; cited from earlier work
[9] = system: Schgr-CCAPR-3; test: aequorin bioluminescence assay, CHO-PAM28 cells; type: cell-based, Schistocerca gregaria; conditions: CHO-PAM28 cells lacking Gα16, aequorin; three independent experiments, in triplicate
Description: as §1
as §3, with “model. […]” for “model.”
(§4) S c h g r-C C A P R -1 E C5 0 = 0 ,7 n M
(§5) S c hg r-C C A P R -2 E C5 0 = 0 ,2 n M
(§6) S c h g r-C C A P R -3 E C5 0 = 0 ,5 n M
(§7) S c h g r-C C A P R -1 E C5 0 = 0 ,0 1 n M
(§8) S c hg r-C C A P R -2 E C5 0 = 1 ,2 n M
(§9) S c hg r-C C A P R -3 E C5 0 = 0 ,0 5 n M
(§10) Dose-response curves induced by CCAP for cell -based receptor activity assays A) in CHO-PAM28-Schgr -CCAPR-1, -2 or -3 cells and B) in HEK293T Schgr -CCAPR-1, -2 or -3 cells, co - transfected with CRE(6x)-Luc construct. These cell-based receptor activity data were obtained from three independent experiments. The bioluminescence was measured in triplicate per concentration of Schgr -CCAP and per transfection. Error bars represent the S.E.M and the 100 % level refers to the maximal response level. […]

[10] = system: Schgr-CCAPR-1; test: aequorin bioluminescence assay, CHO-PAM28 cells; type: cell-based, Schistocerca gregaria; conditions: CHO-PAM28 cells lacking Gα16, aequorin; three independent experiments, in triplicate
Description: as §1
as §3, with “model. […]” for “model.”
as §4, §5, §6, §7, §8, §9, §10

[11] = system: Schgr-CCAPR-2; test: aequorin bioluminescence assay, CHO-PAM28 cells; type: cell-based, Schistocerca gregaria; conditions: CHO-PAM28 cells lacking Gα16, aequorin; three independent experiments, in triplicate
Description: as §1
as §3, with “model. […]” for “model.”
as §4, §5, §6, §7, §8, §9, §10

[12] = system: Schgr-CCAPR-3; test: CRE(6x)-luc reporter assay, HEK-293T cells; type: cell-based, Schistocerca gregaria; conditions: CRE-controlled luciferase, three independent experiments, in triplicate
Description: as §1
as §3, with “model. […]” for “model.”
as §4, §5, §6, §7, §8, §9, §10

[13] = system: Schgr-CCAPR-1; test: CRE(6x)-luc reporter assay, HEK-293T cells; type: cell-based, Schistocerca gregaria; conditions: CRE-controlled luciferase, three independent experiments, in triplicate
Description: as §1
as §3, with “model. […]” for “model.”
as §4, §5, §6, §7, §8, §9, §10

[14] = system: Schgr-CCAPR-2; test: CRE(6x)-luc reporter assay, HEK-293T cells; type: cell-based, Schistocerca gregaria; conditions: CRE-controlled luciferase, three independent experiments, in triplicate
Description: as §1
as §3, with “model. […]” for “model.”
as §4, §5, §6, §7, §8, §9, §10

[15] = 1 µM peptide, normalized to CCAP response
[16] = aequorin and promiscuous Gα16, three independent experiments

crustacean cardioactive peptide [CCAP]
agonist selectivity, receptor activation [1, 15]: markedly activated | EC50 [1, 16]: 0.59 nM | agonist selectivity, receptor activation [2, 15]: markedly activated | EC50 [2, 16]: 3.65 nM | agonist selectivity, receptor activation [3, 15]: markedly activated | EC50 [3, 16]: 0.32 nM | oviduct contractions [4]: induces Ca^2+-dependent contractions | rescue effect of ecdysis deficiency phenotype [5]: 60% | 20E levels [6]: elevated 20E levels | ecdysteroid secretion (prothoracicostatic activity) [7]: significant prothoracicostatic activity | ecdysteroid secretion (prothoracicostatic activity) ([7]; listed as Schgr-CCAP): suppressed ecdysteroid secretion | heartbeat and contraction of skeletal muscles [8]: stimulate heartbeat and contraction of skeletal muscles | EC50 [9]: 0.5 nM | EC50 [10]: 0.7 nM | EC50 [11]: 0.2 nM | EC50 [12]: 0.05 nM | EC50 [13]: 0.01 nM | EC50 [14]: 1.2 nM
